# Starred links: 1 amine or outer side, 2 acyl side, 3 side chain; linkers in the order of their positions; H or OH if unused. Positions of bridges follow the written chain, without caps; N, C: chain ends. Non-standard residues stand in square brackets, D forms with d. Residues, ends and D or L forms follow the SMILES beside them. *: point of attachment. X1 = CC[C@H](C)[C@@H](N[*:1])[C@@H](O)CC(=O)O[C@H](C(=O)[C@H](C)C(=O)[*:2])C(C)C; NMeY = CN[C@@H](Cc1ccc(O)cc1)C(=O)O; dNMeL = CN[C@H](CC(C)C)C(=O)O; Pyruvoyl = CC(=O)C(=O)*
# Key:
# [1] = system: MRI-H-121 human renal tumor xenograft; assay: Aplidine with sorafenib, MRI-H-121 xenograft in athymic nude mice (Example 1); type: in vivo; details: for antitumor activity as single agent (monotherapy): doses and schedules tested, sorafenib 60 or 30 mg/kg/day
# Procedure: (§1) Female athymic nude mice (Harlan Sprague Dawley, Madison, Wis.) were utilized for all experiments. Mice were implanted with tumor fragments or a cell suspension when mice were 5 weeks of age. Animals were housed in ventilated rack caging, 5 mice per cage, with food and water ad libitum. The mice were acclimated for 1 week prior to being implanted with tumor fragments or cell suspensions.
# Tumor measurements were determined by using Vernier calipers. The formula to calculate volume for a prolate ellipsoid was used to estimate tumor volume (mm^3) from 2-dimensional tumor measurements: Tumor volume (mm^3)=[L×W^2]÷2, where L is the length and it is the longest diameter in mm, and W is the width and it is the shortest diameter in mm of a tumor. Assuming unit density, volume was converted to weight (i.e., 1 mm^3=1 mg).
# (§2) Body weights were recorded on treatment days and when tumor sizes were measured. In those days wherein the two drugs were administered the same day, the combination therapy groups were treated by co-administering the two drugs at the same time, with no attempt to sequence the treatments.
# (§3) Aplidine was provided in the form of vials of lyophilized aplidine powder which was reconstituted in Cremophor EL/ethanol/water (CEW) 15/15/70 to a concentration of 0.5 mg/ml. Then the aplidine solution in CEW was diluted in 0.9% Saline to the dosing formulation concentrations, being the final proportion of CEW of 0.18/0.18/0.84.
# Tumor size measurements were recorded twice weekly from the treatment initiation until the termination of the study.
# (§4) Mean, standard deviation and standard error of the mean were determined for tumor volume for all animal groups at all assessments. Student's t test was performed on tumor volumes at each measurement day, including at the end of the study, to determine whether there were any statistically significant differences between combination treatment groups and single monotherapy treatment groups.
# Determine the % of tumor growth inhibition, as 100−% T/C, for each of the drugs administered as monotherapy at the doses used in the combinations. % T/C was obtained by comparing the mean tumor weight in the treatment groups (T) to the mean tumor weight in the control group (C) (T/C×100%). • 2. The two scores were added together to determine the “expected response” if each agent produced the same response as it did when administered as monotherapy. • 3. This “expected response” was subtracted from the % of tumor growth inhibition determined for the combination therapy group: • a. A negative number meant that the effect of combining the two drugs was less than additive. • b. If the resulting number was close to zero, the effect of combining the two drugs was determined as additive. • c.
# [2] = system: MRI-H-121 human renal tumor xenograft; assay: Aplidine with temsirolimus, MRI-H-121 xenograft in athymic nude mice (Example 3); type: in vivo; details: for % Inhibition G2: aplidine 0.06 mg/kg/day; for antitumor activity as single agent (monotherapy): doses tested, temsirolimus 10 and 20 mg/kg/day
# Procedure: as §1, with “fragments” for “fragments or a cell suspension”, “fragments.” for “fragments or cell suspensions.”
# Tumor measurements were determined as disclosed in Example 1. When tumor growth was within an average size range of 95±1.6 mg (mean±SD), mice were randomized into the treatment and control groups based on tumor weight by using LabCat® In Life module V 8.0 SP1 tumor tracking and measurement software.
# as §2
# as §3, with “The” for “Then the”
# Temsirolimus was provided in the form of vials containing a non-aqueous, ethanolic, sterile solution of temsirolimus, 25 mg/ml. […] Then, the solution was further diluted in 0.9% Saline to the dosing formulation concentrations.
# Tumor size measurements were recorded twice weekly from the treatment initiation until the termination of the study. Tumor growth inhibition was assessed comparing the mean tumor weight between the two agents in combination (aplidine and temsirolimus) against temsirolimus mean tumor weight at the different concentrations assayed.
# as §4
# The definition and criteria for the evaluation of potentiation and the degree of additivity for the combination therapy were the same as those disclose in Example 1.
# [3] = aplidine 0.040 and/or sorafenib 30 mg/kg/day
# [4] = aplidine 0.060 and/or sorafenib 60 mg/kg/day
smiles,measurement,setting,value
CNC(=O)c1cc(Oc2ccc(NC(=O)Nc3ccc(Cl)c(C(F)(F)F)c3)cc2)ccn1 [sorafenib],% T/C on day 14,[1]; [3],99.7%
same,% T/C on day 16,[1]; [3],85.6%
same,% T/C on day 20,[1]; [3],62.1%
same,% T/C on day 27,[1]; [3],78.7%
same,% T/C on day 30,[1]; [3],72.0%
same,% T/C on day 34,[1]; [3],66.1%
same,% T/C on day 37,[1]; [3],72.5%
same,% T/C on day 41,[1]; [3],79.5%
same,% T/C on day 44,[1]; [3],77.6%
same,% T/C on day 48,[1]; [3],76.1%
same,% T/C on day 14,[1]; [4],103.8%
same,% T/C on day 16,[1]; [4],85.0%
same,% T/C on day 20,[1]; [4],66.5%
same,% T/C on day 23,[1]; [4],71.7%
same,% T/C on day 27,[1]; [4],70.4%
same,% T/C on day 30,[1]; [4],75.6%
same,% T/C on day 34,[1]; [4],69.6%
same,% T/C on day 37,[1]; [4],71.1%
same,% T/C on day 41,[1]; [4],74.7%
same,% T/C on day 44,[1]; [4],71.0%
same,% T/C on day 48,[1]; [4],71.8%
same,antitumor activity as single agent (monotherapy),[1],did not reach the NCI criteria for activity
"CC[C@H](C)[C@H]1NC(=O)[C@@H](NC(=O)[C@@H](CC(C)C)N(C)C(=O)[C@@H]2CCCN2C(=O)C(C)=O)[C@@H](C)OC(=O)[C@H](Cc2ccc(OC)cc2)N(C)C(=O)[C@@H]2CCCN2C(=O)[C@H](CC(C)C)NC(=O)[C@@H](C)C(=O)[C@H](C(C)C)OC(=O)C[C@@H]1O [aplidine, dehydrodidemnin B] (Pyruvoyl-P[dNMeL]T[X1]LP[NMeY](Me); ester 3-C)",% T/C on day 14,[1]; [3],103.5%
same,% T/C on day 16,[1]; [3],104.0%
same,% T/C on day 20,[1]; [3],85.1%
same,% T/C on day 23,[1]; [3],85.9%
same,% T/C on day 27,[1]; [3],94.1%
same,% T/C on day 30,[1]; [3],86.4%
same,% T/C on day 34,[1]; [3],91.0%
same,% T/C on day 37,[1]; [3],85.6%
same,% T/C on day 41,[1]; [3],92.5%
same,% T/C on day 44,[1]; [3],93.9%
same,% T/C on day 48,[1]; [3],94.9%
same,% T/C on day 14,[1]; [4],102.0%
same,% T/C on day 16,[1]; [4],97.5%
same,% T/C on day 20,[1]; [4],81.5%
same,% T/C on day 23,[1]; [4],73.9%
same,% T/C on day 27,[1]; [4],98.4%
same,% T/C on day 30,[1]; [4],88.5%
same,% T/C on day 34,[1]; [4],75.8%
same,% T/C on day 37,[1]; [4],75.0%
same,% T/C on day 41,[1]; [4],88.3%
same,% T/C on day 44,[1]; [4],90.2%
same,% T/C on day 48,[1]; [4],95.5%
same,antitumor activity as single agent (monotherapy),[1],refractory
same,% Inhibition G2,[2]; day 12,1.7%
same,% Inhibition G2,[2]; day 15,−9.0%
same,% Inhibition G2,[2]; day 19,15.1%
same,% Inhibition G2,[2]; day 22,6.0%
same,% Inhibition G2,[2]; day 27,13.7%
same,% Inhibition G2,[2]; day 30,2.5%
same,% Inhibition G2,[2]; day 34,3.0%
same,% Inhibition G2,[2]; day 37,5.0%
same,% Inhibition G2,[2]; day 40,−7.6%
same,% Inhibition G2,[2]; day 47,−1.6%
same,antitumor activity as single agent (monotherapy),[2],refractory
CO[C@H]1C[C@@H]2CC[C@@H](C)[C@@](O)(O2)C(=O)C(=O)N2CCCC[C@H]2C(=O)O[C@H]([C@H](C)C[C@@H]2CC[C@@H](OC(=O)C(C)(CO)CO)[C@H](OC)C2)CC(=O)[C@H](C)/C=C(\C)[C@@H](O)[C@@H](OC)C(=O)[C@H](C)C[C@H](C)/C=C/C=C/C=C/1C [temsirolimus],antitumor activity as single agent (monotherapy),[2],very sensitive
same,% Inhibition G3,"[2]; temsirolimus 10 mg/kg/day, day 12",4.2%
same,% Inhibition G3,"[2]; temsirolimus 10 mg/kg/day, day 15",37.8%
same,% Inhibition G3,"[2]; temsirolimus 10 mg/kg/day, day 19",57.7%
same,% Inhibition G3,"[2]; temsirolimus 10 mg/kg/day, day 22",54.3%
same,% Inhibition G3,"[2]; temsirolimus 10 mg/kg/day, day 27",61.7%
same,% Inhibition G3,"[2]; temsirolimus 10 mg/kg/day, day 30",63.1%
same,% Inhibition G3,"[2]; temsirolimus 10 mg/kg/day, day 34",67.4%
same,% Inhibition G3,"[2]; temsirolimus 10 mg/kg/day, day 37",64.2%
same,% Inhibition G3,"[2]; temsirolimus 10 mg/kg/day, day 40",57.5%
same,% Inhibition G3,"[2]; temsirolimus 10 mg/kg/day, day 47",56.2%
same,% Inhibition G3,"[2]; temsirolimus 20 mg/kg/day, day 12",2.3%
same,% Inhibition G3,"[2]; temsirolimus 20 mg/kg/day, day 15",33.2%
same,% Inhibition G3,"[2]; temsirolimus 20 mg/kg/day, day 19",58.5%
same,% Inhibition G3,"[2]; temsirolimus 20 mg/kg/day, day 22",64.9%
same,% Inhibition G3,"[2]; temsirolimus 20 mg/kg/day, day 27",72.6%
same,% Inhibition G3,"[2]; temsirolimus 20 mg/kg/day, day 30",71.5%
same,% Inhibition G3,"[2]; temsirolimus 20 mg/kg/day, day 34",73.7%
same,% Inhibition G3,"[2]; temsirolimus 20 mg/kg/day, day 37",71.6%
same,% Inhibition G3,"[2]; temsirolimus 20 mg/kg/day, day 40",71.5%
same,% Inhibition G3,"[2]; temsirolimus 20 mg/kg/day, day 47",73.0%
